The results in this text go back to publication PMC4513132, “Oxidation of Monolignols by Members of the Berberine Bridge Enzyme Family Suggests a Role in Plant Cell Wall Metabolism” (The Journal of Biological Chemistry, 2015).

Assay [1] has as its target T1, AtBBE-like 15 (Arabidopsis thaliana, UniProt O64743).
T1 construct: gene MEE23; secreted by Komagataella pastoris (codon-optimised synthetic gene); crystallised as 27-532; bicovalent FAD (His-115, Cys-179)
Description: X-ray crystal structure, […] Å. The following applies: covalent (bicovalent: His-115 to 8α-methyl, Cys-179 to C6). It counts as binding.

Assay [2] has as its target T1, AtBBE-like 15. Description: stopped-flow reductive half-reaction, flavin absorbance at […] nm. The format is biochemical. Particulars: 50 mM potassium phosphate pH 7.0, 25 °C, anoxic.
A further assay has as its target T2, AtBBE-like 13 (Arabidopsis thaliana, UniProt Q93ZA3).
T2 construct: gene At1g30760; isolated from Komagataella pastoris cells (codon-optimised synthetic gene)
Described as above. The format is biochemical. Particulars: 50 mM potassium phosphate pH 7.0, 25 °C, anoxic.

For assay [3], the target named is T1, AtBBE-like 15. As to the kind of experiment: Thermofluor, SYPRO Orange. It counts as binding. The following applies: 50 mM MES pH 7.0, 2 mg/ml ligand.

T1 sequence (O64743 27-532): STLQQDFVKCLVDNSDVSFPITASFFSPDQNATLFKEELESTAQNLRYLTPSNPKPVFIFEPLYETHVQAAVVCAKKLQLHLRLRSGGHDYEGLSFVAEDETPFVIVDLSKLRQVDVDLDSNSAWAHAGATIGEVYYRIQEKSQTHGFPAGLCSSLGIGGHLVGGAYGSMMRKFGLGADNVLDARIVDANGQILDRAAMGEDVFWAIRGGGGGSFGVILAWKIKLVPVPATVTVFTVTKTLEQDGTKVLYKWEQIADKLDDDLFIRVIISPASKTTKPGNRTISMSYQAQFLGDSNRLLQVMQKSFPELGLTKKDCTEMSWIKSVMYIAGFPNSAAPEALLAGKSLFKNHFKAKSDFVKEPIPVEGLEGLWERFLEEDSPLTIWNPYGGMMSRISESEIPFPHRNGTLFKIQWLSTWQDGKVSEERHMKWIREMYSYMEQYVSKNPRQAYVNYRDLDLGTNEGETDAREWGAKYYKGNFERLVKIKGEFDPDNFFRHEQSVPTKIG
T2 sequence (Q93ZA3 31-534): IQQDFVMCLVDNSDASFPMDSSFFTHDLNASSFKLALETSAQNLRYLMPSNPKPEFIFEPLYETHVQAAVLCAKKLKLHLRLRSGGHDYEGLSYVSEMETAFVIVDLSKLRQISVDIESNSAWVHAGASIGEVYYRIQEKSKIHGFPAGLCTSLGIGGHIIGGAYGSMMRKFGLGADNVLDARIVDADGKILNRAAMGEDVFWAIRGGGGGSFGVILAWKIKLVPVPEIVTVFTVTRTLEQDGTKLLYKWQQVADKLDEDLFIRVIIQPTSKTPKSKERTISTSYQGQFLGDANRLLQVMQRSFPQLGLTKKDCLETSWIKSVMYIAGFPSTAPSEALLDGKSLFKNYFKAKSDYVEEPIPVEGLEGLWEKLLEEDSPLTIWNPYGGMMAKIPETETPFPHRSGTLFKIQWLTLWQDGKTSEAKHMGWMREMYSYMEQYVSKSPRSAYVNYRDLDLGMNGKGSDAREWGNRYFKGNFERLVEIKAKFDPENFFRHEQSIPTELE

For the compound `Cc1cc2nc3c(=O)[nH]c(=O)nc-3n(C[C@H](O)[C@H](O)[C@H](O)COP(=O)(O)OP(=O)(O)OC[C@H]3O[C@@H](n4cnc5c(N)ncnc54)[C@H](O)[C@@H]3O)c2cc1C` [FAD], the “X-ray crystal structure, 2.1 Å” value on AtBBE-like 15 [1] is recorded as “The FAD cofactor is bicovalently linked to the peptide chain”.

The term Kd denotes the free concentration of one partner at which half of the binding sites on the other are occupied at equilibrium, for simple one-to-one binding. In the case of `OC/C=C/c1ccc(O)cc1` [p-coumaryl alcohol], the Kd at AtBBE-like 15 [2] was found to be 700 ± 120 µM; on AtBBE-like 13 it was 867 ± 123 µM.

On to `COc1cc(/C=C/CO)ccc1O[C@@H]1O[C@H](CO)[C@@H](O)[C@H](O)[C@H]1O` [coniferin], for which the figures for the Kd on AtBBE-like 15 [2] and at AtBBE-like 13 were 660 ± 100 µM and 1860 ± 624 µM, respectively.

On to `OC[C@H]1OC(O)[C@H](O)[C@@H](O)[C@@H]1O` (stereo partly drawn) [D-glucose], for which, on AtBBE-like 15 [3], the “increase of the melting temperature” value was “monosaccharides, such as D-glucose, had such a profound effect on the protein's thermal stability”.
